# Measured values as given in patent US9526249B2, “Biocidal composition of 2,6-dimethyl-m-dioxane-4-ol acetate and methods of use” (priority 2008, dated 2016).
# Tests used:
# Format in all cases: cell-based
# [1] = tested on: Pseudomonas aeruginosa (ATCC#15442), Pseudomonas aeruginosa (ATCC#10145), Enterobacter aerogenes (ATCC#13048), Escherichia coli (ATCC#11229), Klebsiella …; assay: Preservative efficacy (repeated bacterial challenge) of dimethoxane/BIT in commercial liquid laundry detergent (pH 8.0), 96-deep well block
# Method: (§1) In the following examples, tests are conducted in a 96-deep well block format using a total sample volume of 600 μl for all evaluations. In these samples, no more than 10% of the total volume consists of the biocide and organism solution and all non-matrix additions are normalized for all samples. Each experimental 96-well block contains biocide-treated samples and control samples which lack biocide.
# (§2) Twenty-four hour tryptic soy broth cultures are combined in equal parts for formulation inoculation at a final concentration of 5×10^6 CFU/ml. Organisms are added to each sample of the 96-well block and mixed until homogenous. Additionally, bacterial challenges of the industrial or household product occur on days 2, 7, and 14 of the 28-day test period.
# (§3) Sample aliquots are removed, at predetermined time points, for the enumeration of surviving microorganisms. Numerical values in the data tables listed below represent the log10 viable microorganisms recovered from individual samples at specific time points and biocide concentrations post microorganism addition. Biocide concentrations resulting in a≧4 log10 kill of microorganisms, as compared to the preservative-free control, were deemed a significant reduction of viable organisms and were subsequently used for calculating synergy index values.
# (§4) The reported synergy indexes are measured and calculated using the formula described below. In this approach, a synergy index of 1 indicates additivity. If the index is less than 1, synergy has occurred, while a synergy index greater than 1 indicates antagonism. Synergy index=CA/Ca+CB/Cb Ca=minimal concentration of antimicrobial A, alone, producing a 4 log10 microbial kill Cb=minimal concentration of antimicrobial B, alone, producing a 4 log10 microbial kill
# (§5) CA and CB=the concentrations of antimicrobials A and B, in combination, producing a 4 log10 microbial kill.
# The antimicrobial profiles dimethoxane, 1,2-benzisothiazol-3-one (BIT), and combinations of dimethoxane/BIT are evaluated in a commercial liquid laundry detergent formulation (pH 8.0).
# (§6) Organisms for this example: Pseudomonas aeruginosa (ATCC#15442), Pseudomonas aeruginosa (ATCC#10145), Enterobacter aerogenes (ATCC#13048), Escherichia coli (ATCC#11229), Klebsiella pneumoniae (ATCC#8308), Staphylococcus aureus (ATCC#6538), Salmonella choleraesuis (ATCC#10708).
# [2] = tested on: Pseudomonas aeruginosa (ATCC#15442), Pseudomonas aeruginosa (ATCC#10145), Enterobacter aerogenes (ATCC#13048), Escherichia coli (ATCC#11229), Klebsiella …; assay: Preservative efficacy (repeated bacterial challenge) of dimethoxane/BIT in commercial water-based latex paint (pH 7.4), 96-deep well block
# Method: as §1, §2, §3, §4, §5
# (§7) The antimicrobial profiles of dimethoxane, BIT, and combinations of dimethoxane/BIT are evaluated in a commercial (interior eggshell) water-based latex paint formulation (pH 7.4). The paint formulation is determined to be free of microbial contamination prior to initiation of preservative efficacy evaluations.
# as §6
# [3] = tested on: Pseudomonas aeruginosa (ATCC#15442), Pseudomonas aeruginosa (ATCC#10145), Enterobacter gergoviae (ATCC#33028), Escherichia coli (ATCC#11229), Pseudomonas …; assay: Preservative efficacy (repeated bacterial challenge) of dimethoxane/MIT in commercial liquid laundry detergent (pH 8.0), 96-deep well block; settings: day 20
# Method: as §1, §2, §3, §4, §5
# The antimicrobial profiles of 2,6-dimethyl-m-dioxan-4-ol acetate (dimethoxane), 2-methyl-3-isothiazolinone (MIT), and combinations of dimethoxane/MIT are evaluated in a commercial liquid laundry detergent formulation (pH 8.0). The detergent formulation is determined to be free of microbial contamination prior to initiation of preservative efficacy evaluations.
# Organisms for this example: Pseudomonas aeruginosa (ATCC#15442), Pseudomonas aeruginosa (ATCC#10145), Enterobacter gergoviae (ATCC#33028), Escherichia coli (ATCC#11229), Pseudomonas putida (ATCC#49128), Staphylococcus aureus (ATCC#6538).
# [4] = tested on: Pseudomonas aeruginosa (ATCC#15442), Pseudomonas aeruginosa (ATCC#10145), Enterobacter aerogenes (ATCC#13048), Escherichia coli (ATCC#11229), Klebsiella …; assay: Preservative efficacy (repeated bacterial challenge) of dimethoxane/CMIT/MIT in commercial water-based latex paint (pH 7.4), 96-deep well block
# Method: as §1, §2, §3, §4, §5
# as §7, with “2,6-dimethyl-m-dioxan-4-ol acetate (dimethoxane), 5-chloro-2-methyl-4-isothiazolin-3-one/2-methyl-4-isothiazolin-3-one (CMIT/MIT)” for “dimethoxane, BIT,”, “dimethoxane/CMIT/MIT” for “dimethoxane/BIT”
# as §6
# [5] = tested on: wild strain of green algae isolated from contaminated PVA latex; assay: Challenge testing of PVA latex against wild strain of green algae; settings: Dimethoxane 2000 ppm alone (CMIT/MIT 0 ppm), three weeks
# Method: Procedure. In this example, a viscous PVA (poly vinyl acetate) latex diluted with water at 5 to 1 ratio is used for algal efficacy testing. Each sample is mixed well by hand and vortex for 2 minutes. 5mL portions of each sample are then placed in a six-well plate and inoculated with 500 μL of 1×10^6 cfu/mL wild strain of green algae isolated from contaminated PVA latex.
# The plates are incubated at room temp (25° C.-26° C.) under cyclic exposure to light (OTT-Lite model #OTL4012P, 40 Watt, 26 KLumen) and dark phases, for a period of three weeks.
# [6] = day 20, ppm active, following four bacterial challenges
compound,measurement,setting,value
"O=c1[nH]sc2ccccc12 [BIT, 1,2-benzisothiazol-3-one]",log10 viable microorganisms (score),"[1]; BIT alone 18 ppm, day 20",6.0 log10
same,log10 viable microorganisms (score),"[1]; BIT alone 26 ppm, day 20",7.0 log10
same,log10 viable microorganisms (score),"[1]; BIT alone 40 ppm, day 20",3.0 log10
same,log10 viable microorganisms (score),"[1]; BIT alone 59 ppm, day 20",0.0 log10
same,log10 viable microorganisms (score),"[1]; BIT alone 89 ppm, day 20",0.0 log10
same,log10 viable microorganisms (score),"[1]; BIT alone 133 ppm, day 20",0.0 log10
same,log10 viable microorganisms (score),"[1]; BIT alone 200 ppm, day 20",1.0 log10
same,log10 viable microorganisms (score),"[1]; BIT alone 300 ppm, day 20",1.0 log10
same,BIT alone (minimal concentration producing a 4 log10 microbial kill),[1]; [6],59 ppm
same,log10 viable microorganisms (score),"[2]; BIT alone 29 ppm, day 15",8 log10
same,log10 viable microorganisms (score),"[2]; BIT alone 44 ppm, day 15",7 log10
same,log10 viable microorganisms (score),"[2]; BIT alone 66 ppm, day 15",6 log10
same,log10 viable microorganisms (score),"[2]; BIT alone 99 ppm, day 15",7 log10
same,log10 viable microorganisms (score),"[2]; BIT alone 148 ppm, day 15",7 log10
same,log10 viable microorganisms (score),"[2]; BIT alone 222 ppm, day 15",8 log10
same,log10 viable microorganisms (score),"[2]; BIT alone 333 ppm, day 15",8 log10
same,log10 viable microorganisms (score),"[2]; BIT alone 500 ppm, day 15",5 log10
"CC(=O)OC1CC(C)OC(C)O1 (stereo not shown) [DMX, 2,6-dimethyl-m-dioxane-4-ol acetate]",log10 viable microorganisms,"[1]; 480 h, 1160 ppm",0.0 log10
same,log10 viable microorganisms,"[1]; DMX alone 102 ppm a.i., day 20",6.0 log10
same,log10 viable microorganisms,"[1]; DMX alone 153 ppm a.i., day 20",6.0 log10
same,log10 viable microorganisms,"[1]; DMX alone 229 ppm a.i., day 20",6.0 log10
same,log10 viable microorganisms,"[1]; DMX alone 344 ppm a.i., day 20",6.0 log10
same,log10 viable microorganisms,"[1]; DMX alone 516 ppm a.i., day 20",6.0 log10
same,log10 viable microorganisms,"[1]; DMX alone 773 ppm a.i., day 20",4.0 log10
same,log10 viable microorganisms,"[1]; DMX alone 1740 ppm a.i., day 20",0.0 log10
same,DMX alone (minimal concentration producing a 4 log10 microbial kill),[1]; [6],1160 ppm
same,log10 viable microorganisms,"[2]; 360 h, 1160 ppm",3 log10
same,log10 viable microorganisms,"[2]; DMX alone 102 ppm a.i., day 15",7 log10
same,log10 viable microorganisms,"[2]; DMX alone 153 ppm a.i., day 15",8 log10
same,log10 viable microorganisms,"[2]; DMX alone 229 ppm a.i., day 15",7 log10
same,log10 viable microorganisms,"[2]; DMX alone 344 ppm a.i., day 15",7 log10
same,log10 viable microorganisms,"[2]; DMX alone 516 ppm a.i., day 15",8 log10
same,log10 viable microorganisms,"[2]; DMX alone 773 ppm a.i., day 15",7 log10
same,log10 viable microorganisms,"[2]; DMX alone 1740 ppm a.i., day 15",0 log10
same,DMX alone (minimal concentration producing a 4 log10 microbial kill),"[2]; day 15, ppm active, following four bacterial challenges",1160 ppm
same,log10 viable microorganisms,[3]; DMX alone 77 ppm,8.0 log10
same,log10 viable microorganisms,[3]; DMX alone 115 ppm,8.0 log10
same,log10 viable microorganisms,[3]; DMX alone 172 ppm,8.0 log10
same,log10 viable microorganisms,[3]; DMX alone 257 ppm,5.0 log10
same,log10 viable microorganisms,[3]; DMX alone 386 ppm,4.0 log10
same,log10 viable microorganisms,[3]; DMX alone 580 ppm,3.0 log10
same,log10 viable microorganisms,[3]; DMX alone 870 ppm,1.0 log10
same,log10 viable microorganisms,[3]; DMX alone 1305 ppm,0.0 log10
same,DMX alone (minimal concentration producing a 4 log10 microbial kill),[3],870
same,log10 viable microorganisms,"[4]; 480 h, 1740 ppm",2 log10
same,log10 viable microorganisms,"[4]; DMX alone 102 ppm a.i., day 20",8 log10
same,log10 viable microorganisms,"[4]; DMX alone 153 ppm a.i., day 20",8 log10
same,log10 viable microorganisms,"[4]; DMX alone 229 ppm a.i., day 20",7 log10
same,log10 viable microorganisms,"[4]; DMX alone 344 ppm a.i., day 20",7 log10
same,log10 viable microorganisms,"[4]; DMX alone 516 ppm a.i., day 20",8 log10
same,log10 viable microorganisms,"[4]; DMX alone 773 ppm a.i., day 20",8 log10
same,log10 viable microorganisms,"[4]; DMX alone 1160 ppm a.i., day 20",6 log10
same,DMX alone (minimal concentration producing a 4 log10 microbial kill),[4]; [6],1740 ppm
same,% algal growth Sample A,[5],15%
same,% algal growth Sample B,[5],15%
"Cn1ccc(=O)s1 [MIT, 2-Methyl-3-isothiazolinone]",log10 viable microorganisms (score),[3]; MIT alone 3 ppm,8.0 log10
same,log10 viable microorganisms (score),[3]; MIT alone 4 ppm,8.0 log10
same,log10 viable microorganisms (score),[3]; MIT alone 7 ppm,8.0 log10
same,log10 viable microorganisms (score),[3]; MIT alone 10 ppm,8.0 log10
same,log10 viable microorganisms (score),[3]; MIT alone 15 ppm,8.0 log10
same,log10 viable microorganisms (score),[3]; MIT alone 22 ppm,8.0 log10
same,log10 viable microorganisms (score),[3]; MIT alone 33 ppm,8.0 log10
same,log10 viable microorganisms (score),[3]; MIT alone 50 ppm,3.0 log10
same,MIT Alone (minimal concentration producing a 4 log10 microbial kill),[3],>50 ppm
